Measurements as given in US9173402B2, “Fungicidal alkyl-substituted 2[2-chloro-4-(4-chioro-phenoxy)-phenyl]-1[1,2,4]triazol-1-yl-ethanol compounds” (BASF SE, priority 2011, dated 2015).
“And” between values parts separate entries of the source, which are not always exact repeats. Equal values may be shown once. Read-outs that look alike come from different tables or passages of the source.

Assays:
[1] = test system: Pyrenophora teres; experiment: Activity against net blotch on barley in the microtiter test; assay type: cell-based; conditions: comparative microtest Example 1, 7 days after inoculation
Procedure: The stock solutions were mixed according to the ratio, pipetted onto a micro titer plate (MTP) and diluted with water to the stated concentrations. A spore suspension of Pyrenophora teres in an aqueous biomalt or yeast-bactopeptone-glycerine solution was then added. The plates were placed in a water vapor-saturated chamber at a temperature of 18° C. Using an absorption photometer, the MTPs were measured at 405 nm 7 days after the inoculation.

[2] = test system: Fusarium culmorum; experiment: Control of culm rot on pearl millet (comparative green house test); assay type: in vivo; conditions: pearl millet sprayed one day before inoculation, % diseased leaf area after 6 days
Procedure: The spray solutions were prepared in several steps:
The stock solution were prepared: a mixture of acetone and/or dimethylsulfoxide and the wetting agent/emulsifier Wettol, which is based on ethoxylated alkylphenoles, in a relation (volume) solvent-emulsifier of 99 to 1 was added to 25 mg of the compound to give a total of 5 ml.
Water was then added to total volume of 100 ml.
This stock solution was diluted with the described solvent-emulsifier-water mixture to the given concentration.
Pot-grown pearl millet seedlings with 2-3 leaves were sprayed to run-off with an aqueous suspension of the compound prepared as described. The plants were allowed to air-dry. At the following day the plants were inoculated with an spore suspension of Fusarium culmorum in a 2% aqueous malt solution. Then the trial plants were immediately transferred to a humid chamber. After 6 days at 23-25° C. and a relative humidity close to 100% the extent of fungal attack on the leaves was visually assessed as % diseased leaf area.

[3] = test system: Alternaria solani; experiment: Activity against early blight, microtiter test; assay type: cell-based; conditions: 7 days after inoculation; for Growth (%) at 0.000125 pm: comparative microtest Example 5; for Growth (%) at 0.5 pm: comparative microtest Example 2
[4] = test system: Pyricularia oryzae; assay type: cell-based; conditions: 7 days after inoculation
[5] = test system: Septoria tritici; experiment: Preventative control of leaf blotch on wheat (comparative green house test); assay type: in vivo; conditions: % diseased leaf area after 4 weeks, untreated control 90
Procedure: (§1) The spray solutions were prepared in several steps: The stock solution were prepared: a mixture of acetone and/or dimethylsulfoxide and the wetting agent/emulsifier Wettol, which is based on ethoxylated alkylphenoles, in a relation (volume) solvent-emulsifier of 99 to 1 was added to 25 mg of the compound to give a total of 5 ml. Water was then added to total volume of 100 ml. This stock solution was diluted with the described solvent-emulsifier-water mixture to the given concentration. Leaves of pot-grown wheat seedling were sprayed to run-off with an aqueous suspension of the active compound or their mixture, prepared as described. The plants were allowed to air-dry. At the following day the plants were inoculated with an aqueous spore suspension of Septoria tritici. […] After 4 days the plants were transferred to a chamber with 18-22° C. and a relative humidity close to 70%. After 4 weeks the extent of fungal attack on the leaves was visually assessed as % diseased leaf area.

[6] = test system: Botrytis cinerea; experiment: Activity against grey mold in the microtiterplate test; assay type: cell-based; conditions: 7 days after inoculation; for Growth (%) at 0.5 pm: comparative microtest Example 3
[7] = test system: Phytophthora infestans; assay type: cell-based; conditions: 32 ppm; 405 nm, 7 days after inoculation; compound-free control = 100%
[8] = test system: Septoria tritici; experiment: Activity against leaf blotch on wheat, microtiter test; assay type: cell-based; conditions: 32 ppm; 405 nm, 7 days after inoculation; compound-free control = 100%
[9] = test system: Leptosphaeria nodorum; experiment: Activity against wheat leaf spots, microtiter test; assay type: cell-based; conditions: 32 ppm; 405 nm, 7 days after inoculation; compound-free control = 100%
[10] = test system: Pyricularia oryzae; assay type: in vivo; conditions: rice sprayed seven days before inoculation, % diseased leaf area after 6 days, untreated control 90
[11] = test system: Septoria tritici; experiment: Curative control of leaf blotch on wheat (comparative green house test); assay type: in vivo; conditions: wheat sprayed seven days after inoculation, % diseased leaf area after 4 weeks, untreated control 90
Procedure: as §1, with “were” for “were sprayed to run-off with an aqueous suspension of the active compound or their mixture, prepared as described. The plants were allowed to air-dry. At the following day the plants were”, “70%. Seven days after inoculation the plants were sprayed to run-off with an aqueous suspension of the active compound or their mixture, prepared as described. Then the plants were transferred back to the chamber with 18-22° C. and a relative humidity close to 70%.” for “70%.”

[12] = comparative microtest Example 7
[13] = comparative microtest Example 4
[14] = 32 ppm, 405 nm, compound-free control = 100%

**Q.** Which “Growth (%) at 8 pm” value [1] does the source give for `CC(O)(Cn1cncn1)c1ccc(Oc2ccc(Cl)cc2)cc1Cl` (stereo not shown) [drawing 6] here?
**A.** 62%

**Q.** Which “Growth (%) at 8 pm” value [1] does the source give for `CCC(Cn1cncn1)(OC)c1ccc(Oc2ccc(Cl)cc2)cc1Cl` (stereo not shown) [drawing 7] here?
**A.** 39%

**Q.** For `OC(Cn1cncn1)c1ccc(Oc2ccc(Cl)cc2)cc1Cl` (stereo not shown) [drawing 32, reference compound], which “Disease (%) at 16 ppm” value ([2]; untreated control 90) is on record?
**A.** 30%

**Q.** For `CC(O)(Cn1cncn1)c1ccc(Oc2ccc(Cl)cc2)cc1Cl` (stereo not shown) [drawing 17, reference compound], which “Growth (%) at 0.000125 pm” value [3] is on record?
**A.** 45%

**Q.** With `CCC(Cn1cncn1)(OC)c1ccc(Oc2ccc(Cl)cc2)cc1Cl` (stereo not shown) [drawing 22, reference compound] as the compound, how does the “Growth (%) at 0.5 pm” value [4, 12] read?
**A.** 47%

**Q.** For `CCCC(O)(Cn1cncn1)c1ccc(Oc2ccc(Cl)cc2)cc1Cl` (stereo not shown) [Compound I-2, 2-[2-chloro-4-(4-chloro-phenoxy)-phenyl]-1-[1,2,4]triazol-1-yl-pentan-2-ol], which “Growth (%) at 0.5 pm” value [4, 13] is on record?
**A.** 4%

**Q.** What about the “Growth (%) at 8 pm” value [1] of the same compound?
**A.** 57%

**Q.** What about the melting point of the same compound?
**A.** 132 to 135 °C

**Q.** With `OC(/C=C/c1ccccc1)(Cn1cncn1)c1ccc(Oc2ccc(Cl)cc2)cc1Cl` (stereo not shown) [drawing 11, reference compound] as the compound, how does the “Growth (%) at 0.5 pm” value [3] read?
**A.** 91%

**Q.** Which “Growth (%) at 0.000125 pm” value [3] does the source give for `CCC(Cn1cncn1)(OC)c1ccc(Oc2ccc(Cl)cc2)cc1Cl` (stereo not shown) [drawing 18, reference compound] here?
**A.** 83%

**Q.** For `OC(Cn1cncn1)c1ccc(Oc2ccc(Cl)cc2)cc1Cl` (stereo not shown) [drawing 24], which “Disease (%) at 150 ppm” value [5] is on record?
**A.** 60%

**Q.** For `OC(Cn1cncn1)(c1ccc(Oc2ccc(Cl)cc2)cc1Cl)C1CC1` (stereo not shown) [Compound I-9], which “Growth (%) at 0.000125 pm” value [3] is on record?
**A.** 1%

**Q.** And the “Disease (%) at 16 ppm” value ([2]; untreated control 90)?
**A.** 5%

**Q.** And the melting point?
**A.** 110 °C

**Q.** With `CCCC(Cn1cncn1)(OC)c1ccc(Oc2ccc(Cl)cc2)cc1Cl` (stereo not shown) [drawing 9] as the compound, how does the “Growth (%) at 8 pm” value [1] read?
**A.** 77%

**Q.** For `CC#CC(O)(Cn1cncn1)c1ccc(Oc2ccc(Cl)cc2)cc1Cl` (stereo not shown) [Compound I-8, 2-[2-chloro-4-(4-chlorophenoxy)phenyl]-1-(1,2,4-triazol-1-yl)pent-3-yn-2-ol], which melting point is on record?
**A.** 139 °C

**Q.** For `OC(/C=C/c1ccccc1)(Cn1cncn1)c1ccc(Oc2ccc(Cl)cc2)cc1Cl` (stereo not shown) [drawing 13, reference compound], which “Growth (%) at 0.5 pm” value [6] is on record?
**A.** 77%

**Q.** For `C#CCC(O)(Cn1cncn1)c1ccc(Oc2ccc(Cl)cc2)cc1Cl` (stereo not shown) [Compound I-11, 2-[2-chloro-4-(4-chloro-phenoxy)-phenyl]-1-[1,2,4]triazol-1-yl-pent-4-yn-2-ol], which “relative growth of the pathogen” value [7] is on record?
**A.** 12%

**Q.** And the “relative growth of the pathogen” value [6, 14]?
**A.** 0%

**Q.** What about the “relative growth of the pathogen” value [4, 14] of the same compound?
**A.** 0%

**Q.** And the “relative growth of the pathogen” value [8]?
**A.** 9%

**Q.** And the “relative growth of the pathogen” value [3, 14]?
**A.** 2%

**Q.** What about the “relative growth of the pathogen” value [9] of the same compound?
**A.** 2%

**Q.** Which “Growth (%) at 0.5 pm” value [4, 13] does the source give for `CCCC(Cn1cncn1)(OC)c1ccc(Oc2ccc(Cl)cc2)cc1Cl` (stereo not shown) [drawing 15, reference compound] here?
**A.** 30%

**Q.** For `CC(O)(Cn1cncn1)c1ccc(Oc2ccc(Cl)cc2)cc1Cl` (stereo not shown) [drawing 21, reference compound], which “Growth (%) at 0.5 pm” value [4, 12] is on record?
**A.** 82%

**Q.** With `OC(Cn1cncn1)c1ccc(Oc2ccc(Cl)cc2)cc1Cl` (stereo not shown) [drawing 27, reference compound] as the compound, how does the “Disease (%) at 250 ppm” value [10] read?
**A.** 60%

**Q.** Which “Disease (%) at 150 ppm” value [5] does the source give for `CC(F)C(O)(Cn1cncn1)c1ccc(Oc2ccc(Cl)cc2)cc1Cl` (stereo not shown) here?
**A.** 50%

**Q.** Which results are given for `CCC(O)(Cn1cncn1)c1ccc(Oc2ccc(Cl)cc2)cc1Cl` (stereo not shown) [Compound I-1, 2-[2-chloro-4-(4-chlorophenoxy)phenyl]-1-(1,2,4-triazol-1-yl)butan-2-ol]?
**A.** Growth (%) at 0.5 pm [4, 12]: 15%; Growth (%) at 0.000125 pm [3]: 1%; Growth (%) at 8 pm [1]: 13%; Disease (%) at 150 ppm [5]: 10%; Disease (%) at 250 ppm [10]: 20%; Disease (%) at 16 ppm ([2]; untreated control 90, listed as Table 1, 1): 0% and 1%; Disease (%) at 16 ppm [11]: 40%; melting point: 140 to 142 °C

**Q.** For `CC(O)(Cn1cncn1)c1ccc(Oc2ccc(Cl)cc2)cc1Cl` (stereo not shown) [drawing 29, reference compound], which “Disease (%) at 16 ppm” value ([2]; untreated control 90) is on record?
**A.** 25%

**Q.** With `C=CC(O)(Cn1cncn1)c1ccc(Oc2ccc(Cl)cc2)cc1Cl` (stereo not shown) [Compound I-10] as the compound, how does the “Growth (%) at 0.5 pm” value [6] read?
**A.** 0%

**Q.** What about the “Growth (%) at 0.5 pm” value [3] of the same compound?
**A.** 0%

**Q.** And the melting point?
**A.** 119 °C

**Q.** For `CCC(Cn1cncn1)(OC)c1ccc(Oc2ccc(Cl)cc2)cc1Cl` (stereo not shown) [drawing 34, reference compound], which “Disease (%) at 16 ppm” value [11] is on record?
**A.** 70%
